In ChEMBL document CHEMBL1153245, “A profile of the in vitro anti-tumor activity of imidazolium-based ionic liquids” (2010):

Columns and labels:
Format in all cases: functional
SW-620 = assay: Anticancer activity against human SW620 cells assessed cell growth at 10 uM after 48 hrs by sulforhodamine B assay relative to control
[1] = Anticancer activity against human Hs 578T cells after 48 hrs by sulforhodamine B assay; details: Homo sapiens, Hs-578T, 48 h
NCI-H522 = assay: Anticancer activity against human NCI-H522 cells after 48 hrs by sulforhodamine B assay
OVCAR-5 = assay: Anticancer activity against human OVCAR5 cells assessed cell growth at 10 uM after 48 hrs by sulforhodamine B assay relative to control
EKVX = assay: Anticancer activity against human EKVX cells after 48 hrs by sulforhodamine B assay; details: Homo sapiens, EKVX, 48 h
MCF7 = assay: Anticancer activity against human MCF7 cells assessed cell growth at 10 uM after 48 hrs by sulforhodamine B assay relative to control
ACHN = assay: Anticancer activity against human ACHN cells after 48 hrs by sulforhodamine B assay
UACC-257 = assay: Anticancer activity against human UACC257 cells after 48 hrs by sulforhodamine B assay
MDA-MB-231 = assay: Anticancer activity against human MDA-MB-231 cells assessed cell growth at 10 uM after 48 hrs by sulforhodamine B assay relative to control
RXF 393 [2] = assay: Anticancer activity against human RXF393 cells after 48 hrs by sulforhodamine B assay; details: Homo sapiens, RXF 393, 48 h
SN12C = assay: Anticancer activity against human SN12C cells assessed cell growth at 10 uM after 48 hrs by sulforhodamine B assay relative to control
A498 = assay: Anticancer activity against human A498 cells after 48 hrs by sulforhodamine B assay; details: Homo sapiens, A498, 48 h
BT-549 = assay: Anticancer activity against human BT549 cells after 48 hrs by sulforhodamine B assay
NCI-H23 = assay: Anticancer activity against human NCI-H23 cells assessed cell growth at 10 uM after 48 hrs by sulforhodamine B assay relative to control
Malme-3M = assay: Anticancer activity against human MALME-3M cells assessed cell growth at 10 uM after 48 hrs by sulforhodamine B assay relative to control
HOP-92 = assay: Anticancer activity against human HOP92 cells after 48 hrs by sulforhodamine B assay; details: Homo sapiens, HOP-92, 48 h
LOX IMVI = assay: Anticancer activity against human LOXIMVI cells after 48 hrs by sulforhodamine B assay
UO-31 = assay: Anticancer activity against human UO31 cells after 48 hrs by sulforhodamine B assay; details: Homo sapiens, UO-31, 48 h
NCI/ADR-RES = assay: Anticancer activity against human NCI/ADR-RES cells after 48 hrs by sulforhodamine B assay; details: Homo sapiens, NCI/ADR-RES, 48 h
K562 = assay: Anticancer activity against human K562 cells after 48 hrs by sulforhodamine B assay
NCI-H322M [3] = assay: Anticancer activity against human NCI-H322M cells after 48 hrs by sulforhodamine B assay
SK-MEL-28 = assay: Anticancer activity against human SK-MEL-28 cells after 48 hrs by sulforhodamine B assay; details: Homo sapiens, SK-MEL-28, 48 h
SK-OV-3 = assay: Anticancer activity against human SKOV3 cells after 48 hrs by sulforhodamine B assay
OVCAR-4 = assay: Anticancer activity against human OVCAR4 cells after 48 hrs by sulforhodamine B assay
SF-539 = assay: Anticancer activity against human SF539 cells assessed cell growth at 10 uM after 48 hrs by sulforhodamine B assay relative to control
HL-60(TB) = assay: Anticancer activity against human HL-60(TB) cells after 48 hrs by sulforhodamine B assay
HOP-62 = assay: Anticancer activity against human HOP62 cells after 48 hrs by sulforhodamine B assay; details: Homo sapiens, HOP-62, 48 h
SNB-19 = assay: Anticancer activity against human SNB19 cells after 48 hrs by sulforhodamine B assay
MDA-MB-435 = assay: Anticancer activity against human MDA-MB-435 cells after 48 hrs by sulforhodamine B assay; details: Homo sapiens, MDA-MB-435, 48 h
MOLT-4 = assay: Anticancer activity against human MOLT4 cells assessed cell growth at 10 uM after 48 hrs by sulforhodamine B assay relative to control
UACC-62 = assay: Anticancer activity against human UACC62 cells assessed cell growth at 10 uM after 48 hrs by sulforhodamine B assay relative to control
[4] = Anticancer activity against human […] cells after 48 hrs by sulforhodamine B assay; details: Homo sapiens, RPMI8266, 48 h
HCT-15 = assay: Anticancer activity against human HCT15 cells after 48 hrs by sulforhodamine B assay
DU-145 = assay: Anticancer activity against human DU145 cells after 48 hrs by sulforhodamine B assay; details: Homo sapiens, DU-145, 48 h
786-0 = assay: Anticancer activity against human 786-0 cells after 48 hrs by sulforhodamine B assay; details: Homo sapiens, 786-0, 48 h
M14 = assay: Anticancer activity against human M14 cells after 48 hrs by sulforhodamine B assay; details: Homo sapiens, M14, 48 h
SK-MEL-5 [5] = assay: Anticancer activity against human SK-MEL-5 cells assessed cell growth at 10 uM after 48 hrs by sulforhodamine B assay relative to control
RXF 393 [6] = assay: Anticancer activity against human RXF393 cells assessed cell growth at 10 uM after 48 hrs by sulforhodamine B assay relative to control
SK-MEL-5 [7] = assay: Anticancer activity against human SK-MEL-5 cells after 48 hrs by sulforhodamine B assay; details: Homo sapiens, SK-MEL-5, 48 h
NCI-H322M [8] = assay: Anticancer activity against human NCI-H322M cells assessed cell growth at 10 uM after 48 hrs by sulforhodamine B assay relative to control
SNB-75 = assay: Anticancer activity against human SNB75 cells assessed cell growth at 10 uM after 48 hrs by sulforhodamine B assay relative to control
[9] = read-out: LC50 (the source's name)

Molecule `CCCCCCCCCCCCCCCCCC[n+]1ccn(C)c1.[Cl-]` has an Activity (SW-620) of -45.24%, a GI50 [1] of 335 nM and a CC50 [1, 9] of 6310 nM. For the same molecule, the GI50 (NCI-H522) was 364 nM, the LC50 (NCI-H522; Homo sapiens, NCI-H522, 48 h) was 6450 nM and the Activity (OVCAR-5) was -61.54%. For the same molecule, the GI50 (EKVX) was 649 nM, the CC50 (EKVX; [9]) was 7780 nM and the Activity (MCF7) was -33.81%. It also gave a GI50 (ACHN) of 446 nM, an LC50 (ACHN; Homo sapiens, ACHN, 48 h) of 4230 nM and a GI50 (UACC-257) of 125 nM. It also gave an LC50 (UACC-257; Homo sapiens, UACC-257, 48 h) of 6770 nM, an Activity (MDA-MB-231) of -66.25% and a GI50 (RXF 393 [2]) of 265 nM. It also gave an LC50 (RXF 393 [2]) of 4900 nM, an Activity (SN12C) of -52.54% and a GI50 (A498) of 1070 nM. It also gave a CC50 (A498; [9]) of 8940 nM, a GI50 (BT-549) of 557 nM and a CC50 (BT-549; Homo sapiens, BT-549, 48 h, read-out: LC50 (the source's name)) of 5330 nM. For the same molecule, the Activity (NCI-H23) was -48.94%, the Activity (Malme-3M) was -62.43% and the GI50 (HOP-92) was 1140 nM. For the same molecule, the CC50 (HOP-92; [9]) was 6850 nM, the GI50 (LOX IMVI) was 189 nM and the CC50 (LOX IMVI; [9]) was 1480 nM. The GI50 (UO-31) was 608 nM, the LC50 (UO-31) was 5940 nM and the GI50 (NCI/ADR-RES) was 1660 nM. For the same molecule, the LC50 (NCI/ADR-RES) was over 100000 nM, the GI50 (K562) was 385 nM and the CC50 (K562; Homo sapiens, K562, 48 h, read-out: LC50 (the source's name)) was over 100000 nM. It also gave an LC50 (NCI-H322M [3]) of 5950 nM, a GI50 (NCI-H322M [3]; Homo sapiens, NCI-H322M, 48 h) of 1300 nM and a GI50 (SK-MEL-28) of 879 nM. It also gave an LC50 (SK-MEL-28) of 5750 nM, a GI50 (SK-OV-3; Homo sapiens, SK-OV-3, 48 h) of 1240 nM and a CC50 (SK-OV-3; [9]) of over 100000 nM. For the same molecule, the GI50 (OVCAR-4; Homo sapiens, OVCAR-4, 48 h) was 778 nM, the CC50 (OVCAR-4; [9]) was over 100000 nM and the Activity (SF-539) was -85.24%. It also gave a GI50 (HL-60(TB); Homo sapiens, HL-60, 48 h) of 143 nM, a CC50 (HL-60(TB); [9]) of 791 nM and a GI50 (HOP-62) of 967 nM. It also gave a CC50 (HOP-62; [9]) of 7800 nM, a GI50 (SNB-19; Homo sapiens, SNB-19, 48 h) of 1220 nM and a CC50 (SNB-19; [9]) of over 100000 nM. The GI50 (MDA-MB-435) was 684 nM, the CC50 (MDA-MB-435; [9]) was 7960 nM and the Activity (MOLT-4) was 16.78%. The Activity (UACC-62) was -70.86%, the GI50 [4] was 27 nM and the CC50 [4, 9] was 1210 nM. It also gave a GI50 (HCT-15) of 461 nM, a CC50 (HCT-15; Homo sapiens, HCT-15, 48 h, read-out: LC50 (the source's name)) of 4110 nM and a GI50 (DU-145) of 635 nM. The CC50 (DU-145; [9]) was 4400 nM, the GI50 (786-0) was 669 nM and the LC50 (50% lethal concentration) (786-0) was 6020 nM. For the same molecule, the GI50 (M14) was 330 nM, the LC50 (50% lethal concentration) (M14) was 6630 nM and the Activity (SK-MEL-5 [5]) was -81.11%. The Activity (RXF 393 [6]) was -28.27%, the GI50 (SK-MEL-5 [7]) was 414 nM and the CC50 (SK-MEL-5 [7]; [9]) was 3970 nM. The Activity (NCI-H322M [8]) was 5.3% and the Activity (SNB-75) was -74.36%.
